Results reported in PMC7162861, “Synthesis, cytotoxicity, pharmacokinetic profile, binding with DNA and BSA of new imidazo[1,2-a]pyrazine-benzo[d]imidazol-5-yl hybrids” (Scientific Reports, 2020).

Columns and labels:
A549/ATCC = test: NCI cytotoxicity screen, Non-Small Cell Lung Cancer panel; type: cell-based; conditions: Homo sapiens; A549/ATCC; single dose 10 µM; negative = lethal; read-out: Percent growth inhibition
Method: (§1) Cytotoxicity was performed at National Cancer Institute (NCI), Bethesda, USA as per their protocols.

EXVX = test: as above; type: cell-based; conditions: Homo sapiens; EXVX; single dose 10 µM; negative = lethal; read-out: Percent growth inhibition
Method: as §1

HOP-62 = test: as above; type: cell-based; conditions: Homo sapiens, single dose 10 µM, negative = lethal, read-out: Percent growth inhibition
Method: as §1

HOP-92 = test: as above; type: cell-based; conditions: Homo sapiens, single dose 10 µM, negative = lethal, read-out: Percent growth inhibition
Method: as §1

NCI-H460 = test: as above; type: cell-based; conditions: Homo sapiens, single dose 10 µM, negative = lethal, read-out: Percent growth inhibition
Method: as §1

COLO 205 = test: NCI cytotoxicity screen, Colon Cancer panel; type: cell-based; conditions: Homo sapiens, single dose 10 µM, negative = lethal, read-out: Percent growth inhibition
Method: as §1

HCT-15 = test: NCI cytotoxicity screen, Colon Cancer panel; type: cell-based; conditions: Homo sapiens, single dose 10 µM, negative = lethal, read-out: Percent growth inhibition
Method: as §1

HCC-2998 = test: NCI cytotoxicity screen, Colon Cancer panel; type: cell-based, human; conditions: Homo sapiens; HCC-2998; single dose 10 µM; negative = lethal; read-out: Percent growth inhibition
Method: as §1

KM12 = test: NCI cytotoxicity screen, Colon Cancer panel; type: cell-based, human; conditions: Homo sapiens, single dose 10 µM, negative = lethal, read-out: Percent growth inhibition
Method: as §1

SW-620 = test: NCI cytotoxicity screen, Colon Cancer panel; type: cell-based, human; conditions: Homo sapiens, single dose 10 µM, negative = lethal, read-out: Percent growth inhibition
Method: as §1

SF-268 = test: NCI cytotoxicity screen, CNS Cancer panel; type: cell-based; conditions: Homo sapiens, single dose 10 µM, negative = lethal, read-out: Percent growth inhibition
Method: as §1

SF-295 = test: NCI cytotoxicity screen, CNS Cancer panel; type: cell-based; conditions: Homo sapiens, single dose 10 µM, negative = lethal, read-out: Percent growth inhibition
Method: as §1

SF-539 = test: NCI cytotoxicity screen, CNS Cancer panel; type: cell-based; conditions: Homo sapiens, single dose 10 µM, negative = lethal, read-out: Percent growth inhibition
Method: as §1

SNB-19 = test: NCI cytotoxicity screen, CNS Cancer panel; type: cell-based; conditions: Homo sapiens; SNB-19; single dose 10 µM; negative = lethal; read-out: Percent growth inhibition
Method: as §1

SNB-75 = test: NCI cytotoxicity screen, CNS Cancer panel; type: cell-based; conditions: Homo sapiens, single dose 10 µM, negative = lethal, read-out: Percent growth inhibition
Method: as §1

U251 = test: NCI cytotoxicity screen, CNS Cancer panel; type: cell-based; conditions: Homo sapiens, U-251; U251; single dose 10 µM; negative = lethal; read-out: Percent growth inhibition
Method: as §1

LOX IMVI = test: NCI cytotoxicity screen, Melanoma panel; type: cell-based, human; conditions: Homo sapiens, single dose 10 µM, negative = lethal, read-out: Percent growth inhibition
Method: as §1

M14 = test: NCI cytotoxicity screen, Melanoma panel; type: cell-based, human; conditions: Homo sapiens, single dose 10 µM, negative = lethal, read-out: Percent growth inhibition
Method: as §1

UACC-62 = test: NCI cytotoxicity screen, Melanoma panel; type: cell-based, human; conditions: Homo sapiens, single dose 10 µM, negative = lethal, read-out: Percent growth inhibition
Method: as §1

MALME-3M = test: NCI cytotoxicity screen, Melanoma panel; type: cell-based; conditions: Homo sapiens; MALME-3M; single dose 10 µM; negative = lethal; read-out: Percent growth inhibition
Method: as §1

MDA-MB-435 = test: NCI cytotoxicity screen, Melanoma panel; type: cell-based; conditions: Homo sapiens, MDA-MB-435, read-out: Percent growth inhibition
Method: as §1

SK-MEL-28 = test: NCI cytotoxicity screen, Melanoma panel; type: cell-based; conditions: Homo sapiens, single dose 10 µM, negative = lethal, read-out: Percent growth inhibition
Method: as §1

SK-MEL-2 = test: NCI cytotoxicity screen, Melanoma panel; type: cell-based; conditions: Homo sapiens, single dose 10 µM, negative = lethal, read-out: Percent growth inhibition
Method: as §1

SK-MEL-5 = test: NCI cytotoxicity screen, Melanoma panel; type: cell-based; conditions: Homo sapiens, single dose 10 µM, negative = lethal, read-out: Percent growth inhibition
Method: as §1

UACC-257 = test: NCI cytotoxicity screen, Melanoma panel; type: cell-based; conditions: Homo sapiens, single dose 10 µM, negative = lethal, read-out: Percent growth inhibition
Method: as §1

IGROV1 = test: NCI cytotoxicity screen, Ovarian Cancer panel; type: cell-based; conditions: Homo sapiens, IGROV-1, single dose 10 µM, negative = lethal, read-out: Percent growth inhibition
Method: as §1

NCI/ADR-RES = test: NCI cytotoxicity screen, Ovarian Cancer panel; type: cell-based; conditions: Homo sapiens, single dose 10 µM, negative = lethal, read-out: Percent growth inhibition
Method: as §1

OVCAR-4 = test: NCI cytotoxicity screen, Ovarian Cancer panel; type: cell-based; conditions: Homo sapiens; OVCAR-4; single dose 10 µM; negative = lethal; read-out: Percent growth inhibition
Method: as §1

OVCAR-5 = test: NCI cytotoxicity screen, Ovarian Cancer panel; type: cell-based; conditions: Homo sapiens, single dose 10 µM, negative = lethal, read-out: Percent growth inhibition
Method: as §1

OVCAR-8 = test: NCI cytotoxicity screen, Ovarian Cancer panel; type: cell-based; conditions: Homo sapiens, single dose 10 µM, negative = lethal, read-out: Percent growth inhibition
Method: as §1

SK-OV-3 = test: NCI cytotoxicity screen, Ovarian Cancer panel; type: cell-based; conditions: Homo sapiens, single dose 10 µM, negative = lethal, read-out: Percent growth inhibition
Method: as §1

OVCAR-3 = test: NCI cytotoxicity screen, Ovarian Cancer panel; type: cell-based, human; conditions: Homo sapiens; OVCAR-3; single dose 10 µM; negative = lethal; read-out: Percent growth inhibition
Method: as §1

786-0 = test: NCI cytotoxicity screen, Renal Cancer panel; type: cell-based, human; conditions: Homo sapiens, single dose 10 µM, negative = lethal, read-out: Percent growth inhibition
Method: as §1

TK-10 = test: NCI cytotoxicity screen, Renal Cancer panel; type: cell-based, human; conditions: Homo sapiens, single dose 10 µM, negative = lethal, read-out: Percent growth inhibition
Method: as §1

ACHN = test: NCI cytotoxicity screen, Renal Cancer panel; type: cell-based; conditions: Homo sapiens, single dose 10 µM, negative = lethal, read-out: Percent growth inhibition
Method: as §1

CAKI-1 = test: NCI cytotoxicity screen, Renal Cancer panel; type: cell-based; conditions: Homo sapiens; CAKI-1; single dose 10 µM; negative = lethal; read-out: Percent growth inhibition
Method: as §1

RXF 393 = test: NCI cytotoxicity screen, Renal Cancer panel; type: cell-based; conditions: Homo sapiens, single dose 10 µM, negative = lethal, read-out: Percent growth inhibition
Method: as §1

SN12C = test: NCI cytotoxicity screen, Renal Cancer panel; type: cell-based; conditions: Homo sapiens, single dose 10 µM, negative = lethal, read-out: Percent growth inhibition
Method: as §1

UO-31 = test: NCI cytotoxicity screen, Renal Cancer panel; type: cell-based; conditions: Homo sapiens, single dose 10 µM, negative = lethal, read-out: Percent growth inhibition
Method: as §1

DU-145 = test: NCI cytotoxicity screen, Prostate Cancer panel; type: cell-based, human; conditions: Homo sapiens, single dose 10 µM, negative = lethal, read-out: Percent growth inhibition
Method: as §1

PC-3 = test: NCI cytotoxicity screen, Prostate Cancer panel; type: cell-based, human; conditions: Homo sapiens, single dose 10 µM, negative = lethal, read-out: Percent growth inhibition
Method: as §1

[1] = Experimental log P, shake-flask method; type: physicochemical; conditions: n-octanol/phosphate buffer pH 7.4, read-out: Exp. Log P
Method: Partition coefficients or experimental log P values of all synthesized compounds (9–23, 30 and 31) were calculated using the shake-flask method. Log P values were determined using n-octanol and phosphate buffer (pH = 7.4) at 10:1 ratio of volumes. Stock solutions (10^−3 M) of compounds were prepared in DMSO. Glass vials were used to make final solutions i.e. stock solution (250 µL) and phosphate buffer (125 µL). To record the absorbance, wavelength was selected based on λmax of the respective compound. Initial absorbance (Ai) for every compound was noted consuming the stock solution in the buffer phase. Now added n-octanol to every vial and shaken well using a mechanical shaker for 50 minutes. To get separation of both phases, glass vials were centrifuged for 35 min. at 2500 rpm. Then, the layer of octanol was separated from glass vial. The final absorbance (Af) of each compound was recorded by using the buffer layer. The values of P for compounds were determined by the following equation (Eq. 8):8 P=Ai−Af/Af×Vw/Vo

A498 = test: NCI cytotoxicity screen, Renal Cancer panel; type: cell-based; conditions: Homo sapiens, single dose 10 µM, negative = lethal, read-out: Percent growth inhibition
Method: as §1

c1csc(-c2cn3ccnc3c(-c3ccc4c(c3)ncn4C3CCCCC3)n2)c1 [Compound 22, 8-(1-cyclohexyl-1H-benzo[d]imidazol-5-yl)-6-(thiophen-2-yl)imidazo[1,2-a]pyrazine]
inhibition at 10 µM (A549/ATCC): 1.63% | inhibition at 10 µM (EXVX): 3.54% | inhibition at 10 µM (HOP-62): 0.44% | inhibition at 10 µM (HOP-92): < 1% | inhibition at 10 µM (NCI-H460): < 1% | inhibition at 10 µM (COLO 205): < 1% | inhibition at 10 µM (HCT-15): 6.48% | inhibition at 10 µM (HCC-2998): < 1% | inhibition at 10 µM (KM12): 6.84% | inhibition at 10 µM (SW-620): < 1% | inhibition at 10 µM (SF-268): 2.5% | inhibition at 10 µM (SF-295): < 1% | inhibition at 10 µM (SF-539): < 1% | inhibition at 10 µM (SNB-19): < 1% | inhibition at 10 µM (SNB-75): < 1% | inhibition at 10 µM (U251): < 1% | inhibition at 10 µM (LOX IMVI): 1.01% | inhibition at 10 µM (M14): < 1% | inhibition at 10 µM (UACC-62): 0.23% | inhibition at 10 µM (MALME-3M): < 1% | inhibition at 10 µM (MDA-MB-435): < 1% | inhibition at 10 µM (SK-MEL-28): < 1% | inhibition at 10 µM (SK-MEL-2): 13.1% | inhibition at 10 µM (SK-MEL-5): 1.16% | inhibition at 10 µM (UACC-257): < 1% | inhibition at 10 µM (IGROV1): < 1% | inhibition at 10 µM (NCI/ADR-RES): 6.79% | inhibition at 10 µM (OVCAR-4): < 1% | inhibition at 10 µM (OVCAR-5): < 1% | inhibition at 10 µM (OVCAR-8): < 1% | inhibition at 10 µM (SK-OV-3): < 1% | inhibition at 10 µM (OVCAR-3): 0.91% | inhibition at 10 µM (786-0): 0.59% | inhibition at 10 µM (TK-10): < 1% | inhibition at 10 µM (ACHN): < 1% | inhibition at 10 µM (CAKI-1): < 1% | inhibition at 10 µM (RXF 393): < 1% | inhibition at 10 µM (SN12C): < 1% | inhibition at 10 µM (UO-31): 16.4% | inhibition at 10 µM (DU-145): 3.63% | inhibition at 10 µM (PC-3): 7.16% | logP [1]: 1.37 | melting point: 187 to 190 °C

c1cn2cc(-c3ccc4c(c3)ncn4C3CCCCC3)nc(-c3ccc4c(c3)ncn4C3CCCCC3)c2n1 [Compound 30, 6,8-bis(1-cyclohexyl-1H-benzo[d]imidazol-5-yl)imidazo[1,2-a]pyrazine]
inhibition at 10 µM (A549/ATCC): 4.93% | inhibition at 10 µM (EXVX): 9.56% | inhibition at 10 µM (HOP-62): 20.8% | inhibition at 10 µM (NCI-H460): 1.35% | inhibition at 10 µM (COLO 205): < 1% | inhibition at 10 µM (HCT-15): 26% | inhibition at 10 µM (HCC-2998): < 1% | inhibition at 10 µM (KM12): 56.2% | inhibition at 10 µM (SW-620): < 1% | inhibition at 10 µM (SF-268): 4.85% | inhibition at 10 µM (SF-295): 10.4% | inhibition at 10 µM (SF-539): 25.4% | inhibition at 10 µM (SNB-19): 5.02% | inhibition at 10 µM (SNB-75): 6.25% | inhibition at 10 µM (U251): 29.7% | inhibition at 10 µM (LOX IMVI): 11.7% | inhibition at 10 µM (M14): < 1% | inhibition at 10 µM (UACC-62): 12.4% | inhibition at 10 µM (MALME-3M): 8.16% | inhibition at 10 µM (MDA-MB-435): < 1% | inhibition at 10 µM (SK-MEL-28): < 1% | inhibition at 10 µM (SK-MEL-5): 20.5% | inhibition at 10 µM (UACC-257): 5.79% | inhibition at 10 µM (IGROV1): < 1% | inhibition at 10 µM (NCI/ADR-RES): 4.12% | inhibition at 10 µM (OVCAR-4): < 1% | inhibition at 10 µM (OVCAR-5): < 1% | inhibition at 10 µM (OVCAR-8): 11.6% | inhibition at 10 µM (SK-OV-3): 11.8% | inhibition at 10 µM (OVCAR-3): < 1% | inhibition at 10 µM (786-0): 13.9% | inhibition at 10 µM (TK-10): < 1% | inhibition at 10 µM (A498): < 1% | inhibition at 10 µM (ACHN): 4.08% | inhibition at 10 µM (CAKI-1): 9.21% | inhibition at 10 µM (RXF 393): 4.3% | inhibition at 10 µM (SN12C): 13.9% | inhibition at 10 µM (UO-31): 26.8% | inhibition at 10 µM (DU-145): 6.22% | inhibition at 10 µM (PC-3): 27.9% | logP [1]: 2.16 | melting point: 205 to 209 °C
